Where “and” joins values, the source holds several entries; their conditions need not be identical. Identical values can stand only once.
What was measured:
IGROV1 = test: cells; assay type: cell-based
SK-MEL-5 = test: cells; assay type: cell-based
K-562 = test: cells; assay type: cell-based
MOLT-4 = test: cells; assay type: cell-based
SK-MEL-2 = test: cells; assay type: cell-based
OVCAR-3 = test: cells; assay type: cell-based
SNB-75 = test: cells; assay type: cell-based
NCI-H460 = test: cells; assay type: cell-based
SF-268 = test: cells; assay type: cell-based
SN12C = test: cells; assay type: cell-based
CCRF-CEM = test: cells; assay type: cell-based
SW-620 = test: cells; assay type: cell-based
[1] = system: NCI-60 panel of tumor cell lines
MDA-MB-468 = test: cells; assay type: cell-based
HCT-15 = test: cells; assay type: cell-based
RPMI-8226 = test: cells; assay type: cell-based
SK-OV-3 = test: cells; assay type: cell-based
SNB-19 = test: cells; assay type: cell-based
DU-145 = test: cells; assay type: cell-based

O=C1c2ccccc2C(=O)c2c1oc1c2c(=O)[nH]c2ccc(Cl)cc21 [3b, 2-Chloronaphtho[2′,3′:4,5]furo[3,2-c]quinoline-6,7,12(5H)-trione]
Growth percent (G%) (IGROV1; IGROV1, 10^−5 M, 48 h): −3.63% | TGI (IGROV1; IGROV1, five-dose): 740 nM | GI50 (SK-MEL-5; Homo sapiens, SK-MEL-5): 1300 nM | CC50 (SK-MEL-5; Homo sapiens, SK-MEL-5, read-out: LC50): 3720 nM | Growth percent (G%) (SK-MEL-5; SK-MEL-5, 10^−5 M, 48 h): 12.31% | TGI (SK-MEL-5; SK-MEL-5, five-dose): 1200 nM | GI50 (K-562; Homo sapiens, K562): 370 nM | CC50 (K-562; Homo sapiens, K562, read-out: LC50): 50100 nM | Growth percent (G%) (K-562; K-562, 10^−5 M, 48 h): 12.90% | TGI (K-562; K-562, five-dose): 2000 nM | GI50 (MOLT-4; Homo sapiens, MOLT-4): 440 nM | CC50 (MOLT-4; Homo sapiens, MOLT-4, read-out: LC50): > 100000 nM | Growth percent (G%) (MOLT-4; MOLT-4, 10^−5 M, 48 h): 18.44% | TGI (MOLT-4; MOLT-4, five-dose): 3160 nM | GI50 (SK-MEL-2; Homo sapiens, SK-MEL-2): 1740 nM | CC50 (SK-MEL-2; Homo sapiens, SK-MEL-2, read-out: LC50): 20000 nM | Growth percent (G%) (SK-MEL-2; SK-MEL-2, 10^−5 M, 48 h): 31.83% | TGI (SK-MEL-2; SK-MEL-2, five-dose): 5130 nM | GI50 (OVCAR-3; Homo sapiens, OVCAR-3): 240 nM | CC50 (OVCAR-3; Homo sapiens, OVCAR-3, read-out: LC50): 1820 nM | Growth percent (G%) (OVCAR-3; OVCAR-3, 10^−5 M, 48 h): −68.37% | TGI (OVCAR-3; OVCAR-3, five-dose): 560 nM | GI50 (SNB-75; Homo sapiens, SNB-75): 160 nM | CC50 (SNB-75; Homo sapiens, SNB-75, read-out: LC50): 1290 nM | Growth percent (G%) (SNB-75; SNB-75, 10^−5 M, 48 h): −9.01% | TGI (SNB-75; SNB-75, five-dose): 420 nM | GI50 (NCI-H460; Homo sapiens, NCI-H460): 220 nM | CC50 (NCI-H460; Homo sapiens, NCI-H460, read-out: LC50): 1480 nM | Growth percent (G%) (NCI-H460; NCI-H460, 10^−5 M, 48 h): −69.73% | TGI (NCI-H460; NCI-H460, five-dose): 490 nM | GI50 (SF-268; Homo sapiens, SF-268): 460 nM | CC50 (SF-268; Homo sapiens, SF-268, read-out: LC50): 49000 nM | Growth percent (G%) (SF-268; SF-268, 10^−5 M, 48 h): −31.69% | TGI (SF-268; SF-268, five-dose): 3980 nM | Growth percent (G%) (SN12C; 10^−5 M, 48 h): −26.26% | GI50 (SN12C; Homo sapiens): 200 nM | CC50 (SN12C; Homo sapiens, read-out: LC50): 1350 nM | TGI (SN12C; five-dose): 470 nM | Growth percent (G%) (CCRF-CEM; 10^−5 M, 48 h): 29.04% | GI50 (CCRF-CEM; Homo sapiens): 410 nM | CC50 (CCRF-CEM; Homo sapiens, read-out: LC50): > 100000 nM | TGI (CCRF-CEM; five-dose): 4860 nM | GI50 (SW-620; Homo sapiens, SW-620): 330 nM | CC50 (SW-620; Homo sapiens, SW-620, read-out: LC50): 7590 nM | Growth percent (G%) (SW-620; SW-620, 10^−5 M, 48 h): −53.04% | TGI (SW-620; SW-620, five-dose): 1000 nM | Average G% ([1]; average over tested NCI-60 cell lines, 10^−5 M (10 μM), 48 h): −4.7% and −4.5% and −4.69% | TGI values, range over all cell lines ([1]; five-dose): 350 to 27540 nM | TGI, average ([1]; five-dose): 1020 nM | GI50 (MDA-MB-468; Homo sapiens, MDA-MB-468): 250 nM | CC50 (MDA-MB-468; Homo sapiens, MDA-MB-468, read-out: LC50): 4570 nM | Growth percent (G%) (MDA-MB-468; MDA-MB-468, 10^−5 M, 48 h): −32.41% | TGI (MDA-MB-468; MDA-MB-468, five-dose): 870 nM | Growth percent (G%) (HCT-15; HCT-15, 10^−5 M, 48 h): −31.10% | TGI (HCT-15; HCT-15, five-dose): 510 nM | GI50 (HCT-15; Homo sapiens, HCT-15): 210 nM | CC50 (HCT-15; Homo sapiens, HCT-15, read-out: LC50): 2000 nM | GI50 (RPMI-8226; Homo sapiens, RPMI-8226): 390 nM | CC50 (RPMI-8226; Homo sapiens, RPMI-8226, read-out: LC50): > 100000 nM | Growth percent (G%) (RPMI-8226; RPMI-8226, 10^−5 M, 48 h): 4.83% | TGI (RPMI-8226; RPMI-8226, five-dose): 2630 nM | GI50 (SK-OV-3; Homo sapiens, SK-OV-3): 350 nM | CC50 (SK-OV-3; Homo sapiens, SK-OV-3, read-out: LC50): 5620 nM | Growth percent (G%) (SK-OV-3; SK-OV-3, 10^−5 M, 48 h): 1.64% | TGI (SK-OV-3; SK-OV-3, five-dose): 1780 nM | GI50 (SNB-19; Homo sapiens, SNB-19): 310 nM | CC50 (SNB-19; Homo sapiens, SNB-19, read-out: LC50): 6170 nM | Growth percent (G%) (SNB-19; SNB-19, 10^−5 M, 48 h): 7.11% | TGI (SNB-19; SNB-19, five-dose): 1100 nM | Growth percent (G%) (DU-145; DU-145, 10^−5 M, 48 h): −45.39% | TGI (DU-145; DU-145, five-dose): 780 nM | GI50 (DU-145; Homo sapiens, DU-145): 280 nM | CC50 (DU-145; Homo sapiens, DU-145, read-out: LC50): 12300 nM
